According to BindingDB's records for patent US8604046 (Sanofi, 2013):

Target: Histamine H3 receptor (Macaca mulatta, UniProt G7N499)
Test: Radioligand Binding Assay
Description: The compounds of this invention have been demonstrated to displace [3H]- methylhistamine radioligand binding to mammalian cell membranes expressing rhesus (Macacca Mulatta) H3 receptor. Additionally, the compounds of this invention have been demonstrated by GTPγS radioligand binding assay to inhibit rhesus H3 constitutive functional activity in cell membranes.

Sequence of Histamine H3 receptor (G7N499 whole entry): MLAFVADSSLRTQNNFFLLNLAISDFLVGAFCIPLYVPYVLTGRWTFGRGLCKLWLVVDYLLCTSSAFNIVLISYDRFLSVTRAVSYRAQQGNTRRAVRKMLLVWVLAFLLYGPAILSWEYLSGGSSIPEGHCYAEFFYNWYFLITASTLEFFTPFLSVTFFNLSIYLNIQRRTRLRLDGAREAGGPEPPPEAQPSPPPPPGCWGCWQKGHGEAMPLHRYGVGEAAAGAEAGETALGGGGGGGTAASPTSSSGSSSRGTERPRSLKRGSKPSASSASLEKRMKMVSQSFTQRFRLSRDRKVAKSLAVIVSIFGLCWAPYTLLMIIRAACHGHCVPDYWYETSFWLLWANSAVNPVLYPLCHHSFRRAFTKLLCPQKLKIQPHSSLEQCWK

## C[C@H]1CCCN1C1CCN(c2ccc(N3CCC4(CCN(C(=O)OC(C)(C)C)CC4)C3=O)c(F)c2)CC1 [US8604046, 79]
  Ki: 0.3 nM
